This assay concerns 521955-158-R2-J5-PDC complex spheroids, viability. Nature of the assay: Anticancer human tumor 521955-158-R2-J5-PDC patient-derived pancreatic carcinoma cell line growth inhibition [RAS]. The conditions noted are these: for pIC50: curve of first compound; for viability, T/C: stronger effect = lower value. The method, boiled down:
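Multi-cell-type spheroids: tumor cells plus HUVEC endothelial cells and mesenchymal stem cells. RAS-pathway inhibitors were combined with targeted agents, each dosed in half-log steps down from clinical Cmax, or from 10 microM when Cmax was unknown.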

Setting [1] is: second compound 0.000949 µM, first compound 0.00316 µM.
The mark [2] stands for this setting: second compound 0.000949 µM, first compound 0.01 µM.
[3] abbreviates: second compound 0.000949 µM, first compound 0.0316 µM.
Where [4] appears, read: second compound 0.000949 µM, first compound 0.1 µM.
Where [5] appears, read: second compound 0.000949 µM, first compound 0.316 µM.
[6] abbreviates: second compound 0.000949 µM, first compound 1 µM.
[7] abbreviates: second compound 0.003 µM, first compound 0.00316 µM.
[8] abbreviates: second compound 0.003 µM, first compound 0.01 µM.
The mark [9] stands for this setting: second compound 0.003 µM, first compound 0.0316 µM.
Where [10] appears, read: second compound 0.003 µM, first compound 0.1 µM.
The mark [11] stands for this setting: second compound 0.003 µM, first compound 0.316 µM.
The mark [12] stands for this setting: second compound 0.003 µM, first compound 1 µM.
Setting [13] is: second compound 0.00949 µM, first compound 0.00316 µM.
[14] abbreviates: second compound 0.00949 µM, first compound 0.01 µM.
[15] abbreviates: second compound 0.00949 µM, first compound 0.0316 µM.
Where [16] appears, read: second compound 0.00949 µM, first compound 0.1 µM.
Setting [17] is: second compound 0.00949 µM, first compound 0.316 µM.
[18] abbreviates: second compound 0.00949 µM, first compound 1 µM.
The mark [19] stands for this setting: second compound 0.03 µM, first compound 0.00316 µM.
Setting [20] is: second compound 0.03 µM, first compound 0.01 µM.
[21] abbreviates: second compound 0.03 µM, first compound 0.0316 µM.
Setting [22] is: second compound 0.03 µM, first compound 0.1 µM.
The mark [23] stands for this setting: second compound 0.03 µM, first compound 0.316 µM.
Setting [24] is: second compound 0.03 µM, first compound 1 µM.
[25] abbreviates: second compound 0.0949 µM, first compound 0.00316 µM.
[26] abbreviates: second compound 0.0949 µM, first compound 0.01 µM.
Setting [27] is: second compound 0.0949 µM, first compound 0.0316 µM.
[28] abbreviates: second compound 0.0949 µM, first compound 0.1 µM.
[29] abbreviates: second compound 0.0949 µM, first compound 0.316 µM.
[30] abbreviates: second compound 0.0949 µM, first compound 1 µM.
Setting [31] is: second compound 0.3 µM, first compound 0.00316 µM.
[32] abbreviates: second compound 0.3 µM, first compound 0.01 µM.
[33] abbreviates: second compound 0.3 µM, first compound 0.0316 µM.
Where [34] appears, read: second compound 0.3 µM, first compound 0.1 µM.
[35] abbreviates: second compound 0.3 µM, first compound 0.316 µM.
[36] abbreviates: second compound 0.3 µM, first compound 1 µM.

pIC50: −log10 of the molar value.

What is called pIC50 is −log10 of the IC50, conventionally taken in molar units. A word on the viability, T/C: it is the ratio of treated to control. Broadly, the IC50 is the point on the concentration scale where inhibition reaches its midpoint.
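Also: compound exposure lasted seven days before the viability read.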
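For viability, T/C in this document: spheroids also contain HUVEC endothelial cells and mesenchymal stem cells as stroma.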

Take `O=C(c1ccc(F)c(F)c1Nc1ccc(I)cc1F)N1CC(O)([C@@H]2CCCCN2)C1` + CCn1c(-c2cc(N3CCN(C)CC3)cnc2C(C)OC)c2c3cc(ccc31)-c1csc(n1)CC(NC(=O)C1CC1C)C(=O)N1CCCC(N1)C(=O)OCC(C)(C)C2: the negative logarithm of the IC50 (pIC50) (second compound 0.000949 µM) was 7.68; the pIC50 (second compound 0.003 µM) is greater than 8.50; the pIC50 (second compound 0.00949 µM) is greater than 8.50; the pIC50 (second compound 0.03 µM) is greater than 8.50; the pIC50 (second compound 0.0949 µM) is greater than 8.50; the pIC50 (second compound 0.3 µM) is greater than 8.50. In addition, the viability, T/C by setting is: under setting [1], 59.3%; under setting [2], 50.1%; under setting [3], 49.4%; under setting [4], 38.6%; under setting [5], 26.4%; under setting [6], 24.1%. The viability, T/C under setting [7] is 41.5%; the viability, T/C under setting [8] was 46.7%; the viability, T/C under setting [9] was 39%; the viability, T/C under setting [10] is 26.8%; the viability, T/C under setting [11] is 20.1%; the viability, T/C under setting [12] is 17.4%. The viability, T/C was 32.3% under setting [13]; 32.1% under setting [14]; 29.2% under setting [15]; 17.4% under setting [16]; 17.8% under setting [17]; 15% under setting [18]. Also, the viability, T/C was 23.7% under setting [19]; 18.3% under setting [20]; 14.9% under setting [21]; 10.8% under setting [22]; 10.3% under setting [23]; 6.61% under setting [24]. The viability, T/C under setting [25] was 8.68%; the viability, T/C under setting [26] was 11.3%; the viability, T/C under setting [27] was 12.6%; the viability, T/C under setting [28] is 8.23%; the viability, T/C under setting [29] is 9.48%; the viability, T/C under setting [30] is 7.34%. Moreover, the viability, T/C runs as follows: under setting [31], 12.8%; under setting [32], 7.85%; under setting [33], 6.59%; under setting [34], 9.27%; under setting [35], 7.62%; under setting [36], 6.97%.

For `CC1(C)CCC(Nc2ncc(C(F)(F)F)c(-c3c[nH]c4c(P(C)(C)=O)c(C#N)ccc34)n2)CN1` (configuration not stated), the viability, T/C by setting is: (compound 0.000949 µM) 104% [middle of 4 runs]; (compound 0.003 µM) 74.5% [middle of 4 runs]; (compound 0.00949 µM) 57.2% [middle of 4 runs]; (compound 0.03 µM) 48.7% [middle of 4 runs]; (compound 0.0949 µM) 52.8% [middle of 4 runs].

For `C=CC(=O)Nc1cc(Nc2nccc(-c3cn(C)c4ccccc34)n2)c(OC)cc1N(C)CCN(C)C` + CCn1c(-c2cc(N3CCN(C)CC3)cnc2C(C)OC)c2c3cc(ccc31)-c1csc(n1)CC(NC(=O)C1CC1C)C(=O)N1CCCC(N1)C(=O)OCC(C)(C)C2, the pIC50 (second compound 0.000949 µM) is greater than 8.50; the pIC50 (second compound 0.003 µM) is greater than 8.50; the pIC50 (second compound 0.00949 µM) is greater than 8.50; the negative logarithm of the IC50 (pIC50) (second compound 0.03 µM) was greater than 8.50; the pIC50 (second compound 0.0949 µM) was greater than 8.50; the pIC50 (second compound 0.3 µM) was greater than 8.50. Besides, the viability, T/C under setting [1] is 44.6%; the viability, T/C under setting [2] is 53.5%; the viability, T/C under setting [3] was 38.4%; the viability, T/C under setting [4] was 43.4%; the viability, T/C under setting [5] was 35.7%; the viability, T/C under setting [6] is 23.1%. The viability, T/C was 40.9% under setting [7]; 46.9% under setting [8]; 50.2% under setting [9]; 43.5% under setting [10]; 35.3% under setting [11]; 18.7% under setting [12]. For the same compound, the viability, T/C under setting [13] was 41.3%; the viability, T/C under setting [14] is 39.6%; the viability, T/C under setting [15] was 27.2%; the viability, T/C under setting [16] is 31.3%; the viability, T/C under setting [17] is 21.5%; the viability, T/C under setting [18] is 8.47%. For the same compound, the viability, T/C was 19.2% under setting [19]; 23.2% under setting [20]; 19.4% under setting [21]; 18.8% under setting [22]; 14.4% under setting [23]; 5.46% under setting [24]. In addition, the viability, T/C under setting [25] is 16%; the viability, T/C under setting [26] is 9.37%; the viability, T/C under setting [27] was 12.8%; the viability, T/C under setting [28] is 8.37%; the viability, T/C under setting [29] is 11.6%; the viability, T/C under setting [30] is 2.68%. Further, the viability, T/C under setting [31] is 16.4%; the viability, T/C under setting [32] is 10.6%; the viability, T/C under setting [33] is 9.7%; the viability, T/C under setting [34] is 8.57%; the viability, T/C under setting [35] was 6.24%; the viability, T/C under setting [36] was 3.02%.

With `C#Cc1c(F)ccc2cc(O)cc(-c3ncc4c(N5CC6CCC(C5)N6)nc(OCC56CCCN5CC(F)C6)nc4c3F)c12` (configuration not stated), the viability, T/C runs as follows: (compound 0.0316 µM) 64.5% [middle of 8 runs]; (compound 0.1 µM) 57.3% [middle of 8 runs]; (compound 0.316 µM) 53.9% [middle of 8 runs]; (compound 1 µM) 51.1% [middle of 8 runs]; (compound 3.16 µM) 45.4% [middle of 8 runs]; (compound 10 µM) 35.1% [middle of 8 runs].

With `CCC(CC)c1cc(NC2CCC(N)C2)n2nccc2n1` (configuration not stated), the viability, T/C runs as follows: (compound 0.0316 µM) 110% [middle of 4 runs]; (compound 0.1 µM) 91.2% [middle of 4 runs]; (compound 0.316 µM) 122% [middle of 4 runs]; (compound 1 µM) 111% [middle of 4 runs]; (compound 3.16 µM) 9.87% [middle of 4 runs]; (compound 10 µM) 10.2% [middle of 4 runs]. In addition, the IC50 (curve of compound) is 1.97 µM [middle of 4 runs].

Source of the values: PubChem BioAssay AID2060900 (Molecular Pharmacology Branch, DTP, NCI, 2025).
